Laboratory results reported in patent US12234499B2, “Compositions, methods, systems and/or kits for detecting antimicrobial resistance in bacteria” (priority 2016, dated 2025).
Read-outs that look alike come from different tables or passages of the source.

Columns and labels:
Type in all cases: cell-based
[1] = system: Bacteria expressing Ambler Class B carbapenemases; test: Growth tests with chelating agents added to antibiotic
Procedure: (§1) Non-limiting embodiments of detection tests for enteric and non-fermenting bacteria, with various concentration ranges of one or more antibiotics, and various concentration ranges for one or more inhibitors are shown in FIG. 1-FIG. 24 and FIG. 31. These figures illustrate the concentration of the antibiotic being tested (in μg/ml) along the x-axis (not every concentration is tested in every figure), and the amount of growth of bacteria in the sample in the y-axis. The boxes illustrate the median, interquartile range, non-outlier minimum and maximum; with asterisks representing single outliers. Each figure has a panel for Class A, Class B, and Class D producing bacteria, as well as a panel for non-carbapenemase producing bacteria (NEG). In some embodiments, the detection tests described herein are not performed by imaging a change in cell morphology.

[2] = system: E. aerogenes G1614; test: Carbapenem MIC of study isolate; conditions: Klebsiella aerogenes, High AmpC
[3] = system: E. aerogenes G1648; test: Carbapenem MIC of study isolate; conditions: Klebsiella aerogenes, High AmpC
[4] = system: E. cloacae G1637; test: Carbapenem MIC of study isolate; conditions: Enterobacter cloacae, High AmpC
[5] = system: E. cloacae G1735; test: Carbapenem MIC of study isolate; conditions: Enterobacter cloacae
[6] = system: E. coli G1693; test: Carbapenem MIC of study isolate; conditions: Escherichia coli, High AmpC, S12like (Table 2), High AmpC (Table 4.2)
[7] = system: E. coli G164; test: Carbapenem MIC of study isolate; conditions: Escherichia coli, High AmpC (Table 2), SHV-12-like (Table 4.2)
[8] = system: E. coli 0058; test: Carbapenem MIC of study isolate; conditions: Escherichia coli, ESBL
[9] = system: E. coli 0086; test: Carbapenem MIC of study isolate; conditions: Escherichia coli, CTX-M-9
[10] = system: K. pneumoniae 0044; test: Carbapenem MIC of study isolate; conditions: Klebsiella pneumoniae, CTX-M-15, TEM-1, SHV-1
[11] = system: K. pneumoniae 0042; test: Carbapenem MIC of study isolate; conditions: Klebsiella pneumoniae, CTX-M-28, OmpK35, OmpK36
[12] = system: K. pneumoniae 0047; test: Carbapenem MIC of study isolate; conditions: Klebsiella pneumoniae, OmpK35
[13] = system: K. pneumoniae 0079; test: Carbapenem MIC of study isolate; conditions: Klebsiella pneumoniae, CTX-M-14, OmpK35 (Table 4.2 also DHA-1)
[14] = system: K. pneumoniae G1758; test: Carbapenem MIC of study isolate; conditions: Klebsiella pneumoniae, CLSI MHT negative control
[15] = system: K. pneumoniae 0109; test: Carbapenem MIC of study isolate; conditions: Klebsiella pneumoniae, CTX-M-15, TEM-1, SHV-1
[16] = system: K. pneumoniae 0043; test: Carbapenem MIC of study isolate; conditions: Klebsiella pneumoniae, SHV-12, OmpK36
[17] = system: M. morganii G1751; test: Carbapenem MIC of study isolate; conditions: Morganella morganii, High AmpC
[18] = system: P. mirabilis G1745; test: Carbapenem MIC of study isolate; conditions: Proteus mirabilis, CMY, TEM-1-like
[19] = system: K. pneumoniae G1685; test: Carbapenem MIC of study isolate; conditions: Klebsiella pneumoniae, CMY-2-like
[20] = system: E. cloacae 0032; test: Carbapenem MIC of study isolate; conditions: Enterobacter cloacae, KPC-3, TEM-1
[21] = system: A. baumannii 0052; test: Carbapenem MIC of study isolate; conditions: Acinetobacter baumannii, OXA-58
[22] = system: K. ozaenae 0096; test: Carbapenem MIC of study isolate; conditions: KPC
[23] = system: K. pneumoniae 0113; test: Carbapenem MIC of study isolate; conditions: Klebsiella pneumoniae, KPC-3
[24] = system: E. coli 0119; test: Carbapenem MIC of study isolate; conditions: Escherichia coli, NDM
[25] = system: E. coli 0137; test: Carbapenem MIC of study isolate; conditions: Escherichia coli, NDM-6
[26] = system: P. mirabilis 0155; test: Carbapenem MIC of study isolate; conditions: Proteus mirabilis, KPC
[27] = system: P. mirabilis 0156; test: Carbapenem MIC of study isolate; conditions: Proteus mirabilis, KPC
[28] = system: P. aeruginosa G15; test: Carbapenem MIC of study isolate; conditions: Pseudomonas aeruginosa, KPC-5
[29] = system: S. marcescens G153; test: Carbapenem MIC of study isolate; conditions: Serratia marcescens, KPC
[30] = system: K. pneumoniae G157; test: Carbapenem MIC of study isolate; conditions: Klebsiella pneumoniae, KPC-8
[31] = system: K. pneumoniae G158; test: Carbapenem MIC of study isolate; conditions: Klebsiella pneumoniae, KPC-8
[32] = system: K. oxytoca G1640; test: Carbapenem MIC of study isolate; conditions: Klebsiella oxytoca, KPC
[33] = system: K. pneumoniae G1675; test: Carbapenem MIC of study isolate; conditions: Klebsiella pneumoniae, KPC-2, SHV-5-like
[34] = system: K. pneumoniae G1725; test: Carbapenem MIC of study isolate; conditions: Klebsiella pneumoniae, KPC
[35] = system: A. baumannii G1734; test: Carbapenem MIC of study isolate; conditions: Acinetobacter baumannii, OXA-40
[36] = system: K. oxytoca 0147; test: Carbapenem MIC of study isolate; conditions: KPC
[37] = system: P. aeruginosa G15019; test: Carbapenem MIC of study isolate
[38] = system: K. pneumoniae G1511; test: Carbapenem MIC of study isolate; conditions: Klebsiella pneumoniae, KPC-4, read-out: MIC
[39] = system: P. mirabilis G15185; test: Carbapenem MIC of study isolate; conditions: Proteus mirabilis, IMP-27, read-out: MIC
[40] = system: P. aeruginosa G15557; test: Carbapenem MIC of study isolate; conditions: VIM-like
[41] = system: E. cloacae G1693; test: Carbapenem MIC of study isolate; conditions: Enterobacter cloacae, IMP-8 (Table 4.1)
[42] = system: C. freundii G1706; test: Carbapenem MIC of study isolate; conditions: Citrobacter freundii, KPC
[43] = system: E. cloacae G1691; test: Carbapenem MIC of study isolate; conditions: Enterobacter cloacae; IMP-8-producing E. cloacae G1691
[44] = system: Bacteria expressing Class C β-lactamases; test: Growth test with CLOX (FIG. 31)
Procedure: as §1
(§2) In some embodiments, the detection tests can comprise a plurality of wells comprising enteric bacteria, CLOX at 0.1 mg/ml, and MEM over a range of concentrations of about 0.0156 μg/ml to about 64 μg/ml (FIG. 31).

[45] = system: bacteria expressing Classes A, B or D; test: Growth test with CLOX (FIG. 31); conditions: CLOX at a concentration of about 100 μg/ml
Procedure: as §1, §2

O=C(O)CN(CCN(CC(=O)O)CC(=O)O)CC(=O)O [EDTA, ethylenediaminetetraacetic acid]
concentration at which bacteria are sensitive ([1]; FIG. 3, FIG. 4, FIG. 15 and FIG. 16 (with TEM/CLOX or DOR/CLOX)): 250 µg/mL
concentration at which bacteria are sensitive ([1]; FIG. 5 and FIG. 6 (with TEM/CLOX)): 280 µg/mL

C[C@@H](O)[C@H]1C(=O)N2C(C(=O)O)=C(SCCN=CN)C[C@H]12 [Imipenem]
MIC [2]: > 8 µg/mL
MIC [3]: > 8 µg/mL
MIC [4]: > 8 µg/mL
MIC [5]: > 8 µg/mL
MIC [6]: > 8 µg/mL
MIC [7]: > 8 µg/mL
MIC [8]: ≤ 0.25 µg/mL
MIC [9]: > 8 µg/mL
MIC [10]: > 8 µg/mL
MIC [11]: 1 µg/mL
MIC [12]: > 8 µg/mL
MIC [13]: > 8 µg/mL
MIC [14]: 4 µg/mL
MIC [15]: 4 µg/mL
MIC [16]: > 8 µg/mL
MIC [17]: 4 µg/mL
MIC [18]: 8 µg/mL
MIC [19]: > 8 µg/mL
MIC [20]: 4 µg/mL
MIC [21]: > 8 µg/mL
MIC [22]: > 8 µg/mL
MIC [23]: > 8 µg/mL
MIC [24]: > 8 µg/mL
MIC [25]: > 8 µg/mL
MIC [26]: > 8 µg/mL
MIC [27]: 8 µg/mL
MIC [28]: > 8 µg/mL
MIC [29]: > 8 µg/mL
MIC [30]: > 8 µg/mL
MIC [31]: > 8 µg/mL
MIC [32]: > 8 µg/mL
MIC [33]: > 8 µg/mL
MIC [34]: > 8 µg/mL
MIC [35]: > 8 µg/mL
MIC ([36]; listed as IPM): >8 µg/mL
MIC ([36]; Klebsiella oxytoca, read-out: MIC): > 8 µg/mL
MIC ([37]; Pseudomonas aeruginosa, VIM-2, read-out: MIC): > 8 µg/mL
MIC ([37]; VIM-2, listed as IPM): >8 µg/mL
MIC [38]: 4 µg/mL
MIC [39]: 8 µg/mL
MIC ([40]; Pseudomonas aeruginosa, read-out: MIC): > 8 µg/mL
MIC ([40]; listed as IPM): >8 µg/mL
MIC [41]: 4 µg/mL
MIC [42]: 2 µg/mL
MIC [43]: 4 µg/mL

Cc1onc(-c2ccccc2Cl)c1C(=O)N[C@@H]1C(=O)N2[C@@H]1SC(C)(C)[C@@H]2C(=O)O [CLOX, cloxacillin]
concentration at which bacteria are sensitive [44]: about 100 μg/ml
sensitivity to CLOX [45]: typically not
